# Experimental data from article PMC2710984 (International Journal of Peptide Research and Therapeutics, 2006).
# Values joined by “and” are separate entries in the source; they are usually repeats but may differ in a detail not shown here. Equal entries are not always repeated. Square brackets hold non-standard residues; d marks the D form. Ends that are not written are not given here. Peptide text beside a SMILES is read from it. Abu = CC[C@H](N)C(=O)O; Lac = C[C@H](O)C(=O)O
# Molecular target: XIAP BIR3 (Homo sapiens, UniProt P98170)
# Experiment: Peptide–BIR3 binding assay
# Conditions: not given
# XIAP BIR3, sequence (P98170 241-356 limits assumed): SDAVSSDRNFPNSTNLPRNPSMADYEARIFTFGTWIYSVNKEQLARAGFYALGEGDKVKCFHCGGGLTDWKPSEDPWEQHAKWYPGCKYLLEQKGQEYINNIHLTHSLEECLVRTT
row,Compound,IC50 [nM]
1,"CC(C)[C@H](NC(=O)[C@H](C)N)C(=O)N1CCC[C@H]1C(N)=O [Compound 5, AVP] (H-Ala-Val-Pro-NH2)",> 10000
2,"CC(C)[C@H](NC(=O)[C@H](C)N)C(=O)N[C@@H](C)C(=O)N[C@@H](Cc1ccccc1)C(N)=O [Compound 6, AVAF]",750
3,"AVPIA-NH2 [Compound 3, AVPIA]",300

# Second part, the compound after the results:
row,IC50 [nM],Compound
1,340,"CC[C@H](C)[C@H](NC(=O)[C@H](C)N)C(=O)N[C@@H](C)C(=O)N[C@@H](Cc1ccc(O)cc1)C(N)=O [Compound 8, AIAY] (H-AIAY-NH2)"
2,120,"CC[C@H](N)C(=O)N[C@H](C(=O)N1CCC[C@H]1C(=O)N[C@@H](Cc1ccccc1)C(N)=O)C(C)C [Compound 9, Abu–VPF] (H-[Abu]VPF-NH2)"
3,1000,"CC(C)[C@H](NC(=O)[C@@H](N)CO)C(=O)N1CCC[C@H]1C(=O)N[C@@H](Cc1ccccc1)C(N)=O [Compound 10, SVPF] (H-SVPF-NH2)"
4,> 1600,"CC(C)[C@H](NC(=O)[C@H](C)O)C(=O)N1CCC[C@H]1C(=O)N[C@@H](Cc1ccccc1)C(N)=O [Compound 14, Lac–VPF] (H-[Lac]VPF-NH2)"
5,180,"CC(C)C[C@H](NC(=O)[C@H](C)N)C(=O)N1CCC[C@H]1C(=O)N[C@@H](Cc1ccccc1)C(N)=O [Compound 15, ALPF] (H-ALPF-NH2)"
6,80,"CC[C@H](C)[C@H](NC(=O)[C@H](C)N)C(=O)N1CCC[C@H]1C(=O)N[C@@H](Cc1ccccc1)C(N)=O [Compound 16, AIPF] (H-AIPF-NH2)"
7,200,"C[C@H](N)C(=O)N[C@H](C(=O)N1CCC[C@H]1C(=O)N[C@@H](Cc1ccccc1)C(N)=O)[C@@H](C)O [Compound 17, ATPF] (H-ATPF-NH2)"
8,1000,"CC(C)[C@H](NC(=O)[C@H](C)N)C(=O)N1C[C@H](O)C[C@H]1C(=O)N[C@@H](Cc1ccccc1)C(N)=O [Compound 20, AV–Hyp–F]"

# Same assay, conditions: IC50, inhibition of Smac–BIR3 interaction, FMAT
row,Compound,IC50
1,"AVPIAQ-NH2 [Compound 2, AVPIAQ]",270 nM
2,"AVPIAQK-NH2 [Compound 1, AVPIAQK]",400 nM and 390 nM

# Molecular target: GST–BIR3 (Homo sapiens, UniProt P98170)
# Experiment: not given
# Format: biochemical
# Conditions: not given
# GST–BIR3, sequence (P98170 241-356 limits assumed): as above
row,Compound,IC50 [nM]
1,AVPFAQK-NH2 [AVPFAQK],2000
2,"AVPIAQK-NH2 [Compound 1, AVPIAQK]",3000

# System: XIAP BIR3 domain
# Experiment: not given
# Conditions: ref Nikolovska-Coleska et al., 2004; cited from earlier work
row,Compound,IC50 [nM]
1,CCCCCCCCCCCC1=C(O)C(=O)C=C(O)C1=O [Embelin],4100
